Experimental data from patent US8940705B2, “Method of treating disease and selectively modulating transcriptional regulation by a glucocorticoid receptor by administering aclacinomycin and dexamethasone” (The Regents of the University of California, priority 2009, dated 2015).

Assays:
Type in all cases: cell-based
[1] = target: T1, GR (Homo sapiens, UniProt P04150); test: Multi-promoter fluorescent protein reporter compound screen for GR modulators; design: endogenous in cells; host or cells: A549; conditions: A549 cells, library compounds 2.5 μM with dex 100 nM; reporter fluorescence relative to plate mean
T1 sequence (P04150 1-777): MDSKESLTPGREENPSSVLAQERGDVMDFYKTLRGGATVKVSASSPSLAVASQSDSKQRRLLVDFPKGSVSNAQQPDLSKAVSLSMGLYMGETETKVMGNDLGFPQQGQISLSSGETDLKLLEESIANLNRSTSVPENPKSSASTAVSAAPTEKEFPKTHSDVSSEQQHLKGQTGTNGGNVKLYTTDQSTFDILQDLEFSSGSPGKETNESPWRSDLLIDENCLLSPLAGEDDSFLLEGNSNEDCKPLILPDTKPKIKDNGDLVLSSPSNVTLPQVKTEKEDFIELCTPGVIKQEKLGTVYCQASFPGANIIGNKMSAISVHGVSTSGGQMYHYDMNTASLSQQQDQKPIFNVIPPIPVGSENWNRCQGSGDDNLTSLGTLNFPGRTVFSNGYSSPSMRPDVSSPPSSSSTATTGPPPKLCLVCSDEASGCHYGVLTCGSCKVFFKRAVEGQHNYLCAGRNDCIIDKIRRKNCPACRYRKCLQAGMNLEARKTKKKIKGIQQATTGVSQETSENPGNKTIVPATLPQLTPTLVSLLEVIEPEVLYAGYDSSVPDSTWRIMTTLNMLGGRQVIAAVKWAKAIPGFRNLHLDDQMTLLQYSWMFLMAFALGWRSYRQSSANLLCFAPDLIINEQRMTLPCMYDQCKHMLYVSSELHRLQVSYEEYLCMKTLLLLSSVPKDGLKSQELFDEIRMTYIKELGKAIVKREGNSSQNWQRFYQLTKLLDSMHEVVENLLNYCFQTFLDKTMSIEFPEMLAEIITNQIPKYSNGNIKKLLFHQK
Protocol: Compound Screen. A549 cells were transfected with an equal mixture of pENaC-CFP, pGILZ-YFP, pFKBP5-OFP (1.3 μg each), or with pSV40-ChFP (4 μg). The next day, cells were mixed (˜1.8×10^4 of the cells triple-transfected with pENaC-CFP, pGILZ-YFP, pFKBP5-OFP; ˜2×10^3 cells transfected with pSV40-ChFP) and replated into 96 well plates (Costar 3603). 2 hours later, library compounds (2.5 μM) and dex (100 nM) were added using a Biomek robot. The following day, cells were fixed for 4 minutes in 4% paraformaldehyde and fluorescence was measured sequentially for each reporter using a Safire plate reader (Tecan). Hits were scored based on the mean and standard deviation (s.d.) of the experimental wells on each plate. Criteria for a hit were if one reporter was more than 1.5×s.d. from the mean in duplicate, or if two reporters were more than 0.8×s.d. from the mean in duplicate. If the control SV40-ChFP was more than 2×s.d. from the mean in a single plate, or 0.8×s.d. in duplicate plates (in the same direction as the GR reporters), the well was not scored as a hit.
We used the system of Example 1 to screen a library of 1040 natural products and FDA-approved drugs for modulators of GR signaling (Abbott, A. Nature 417:109). The screen design is outlined in FIG. 2. The pENaC-CFP, pGILZ-YFP, and pFKBP5-OFP reporters indicated GR signaling, while pSV40-mCh, an internal control, excluded non-specific transcription inhibitors and toxins. We screened the library in duplicate in the presence of saturating dex (100 nM). Z′, a function that reflects the ability to discriminate between control and experimental wells (Zhang, J. H. et al., J Biomol Screen 4:67-73 (1999)), was determined for dex treatment of each GR reporter. The Z′ values were: Z′(ENAC-CFP)=0.68; Z′(GILZ-YFP)=0.64; and Z′(FKBP5-OFP)=0.66. These indicate that the screen should efficiently identify compounds that increase or decrease fluorescence from any of the three experimental promoters (Zhang, J. H. et al., J Biomol Screen 4:67-73 (1999)).

[2] = system: GR; test: qPCR of endogenous GR target genes, cell line not distinguished (FIG. 4B, 5D); conditions: with dex, 24 hr
Source text: Quantitative PCR. Total RNA isolation used Trizol and Pure Link (Invitrogen). […] Rpl19 expression was used for data normalization.

[3] = target: T1, GR; test: Luciferase assays, GR-responsive reporters, A549 cells; design: endogenous in cells; host or cells: A549; conditions: for Dose dependent: whether the drug acted dose-dependently on GR-luciferase reporters; for GR activity (GR-mediated induction of pENaC-luc reporter): pENaC-luc and pSV40-rl
Protocol: Transfections. The day prior to transfection, ˜3×10^5 cells were plated in 6-well dishes. Transfections used Lipofectamine 2000 (Invitrogen). 4 μg of total plasmid DNA were used for each transfection. For A549 cells, 500 μL of DNA/lipofectamine complex was added to 1.5 ml of DMEM with pen/strep and 5% FBS. For U2OS cells, 500 μl of DNA/lipofectamine complex was added to 1.5 ml of Optimem. After 3-4 hours of incubation, media was replaced with standard growth media.
Luciferase assays. Luciferase assays used the Promega Dual-Luciferase Reporter system. Briefly, cells were transfected with various firefly luciferase plasmids and pSV40-RL at a ratio of 10:1. The day after transfection, cells were split into 96-well dishes and treated with dex and various drugs. Cells were harvested in 50 μl 1XPLB (Promega) 12-18 hr after drug treatment and luciferase assays were performed on 10 μl of lysate. Luminscence was detected using an Ultra Evolution plate reader (Tecan).

Compound	ENaC-CFP [1]	FKBP5-OFP [1]	GILZ-YFP [1]	Dose dependent [3]	GR activity (GR-mediated induction of pENaC-luc reporter) ([3]; A549 cells, with dex)	also measured
Cc1cc(C2CCCCC2)n(O)c(=O)c1 [Ciclopirox olamine]	↓^c (0.8 to 2 s.d. less than the mean (↓))	no effect	↓ (0.8 to 2 s.d. less than the mean (↓))	dose dependent effects and yes	–	expression of endogenous GR target genes (qPCR), overall [2]: general GR antagonist
COc1cccc2c1C(=O)c1c(O)c3c(c(O)c1C2=O)C[C@@](O)(C(=O)CO)C[C@@H]3O[C@H]1C[C@H](N)[C@H](O)[C@H](C)O1 [Doxorubicin]	–	–	–	–	inhibited GR	–
O=c1oc2c(O)c(O)cc3c(=O)oc4c(O)c(O)cc1c4c23 [Ellagic Acid]	No effect	↓ (0.8 to 2 s.d. less than the mean (↓))	↓ (0.8 to 2 s.d. less than the mean (↓))	no	–	–
CCCCCC(=O)O[C@]1(C(C)=O)CC[C@H]2[C@@H]3CCC4=CC(=O)CC[C@]4(C)[C@H]3CC[C@@]21C [Hpg. caproate, Hydroxyprogesterone caproate]	No effect	↓↓↓ (more than 2 standard deviations (s.d.) less than the mean (↓↓↓))	↓↓↓ (more than 2 standard deviations (s.d.) less than the mean (↓↓↓))	yes	–	expression of endogenous GR target genes (qPCR), overall [2]: selectively modulated endogenous GR target genes; induction of endogenous ENaC (qPCR) [2]: no impact; induction of endogenous FKBP5 (qPCR) [2]: reduced induction; induction of endogenous GILZ (qPCR) [2]: reduced induction; Dose dependent ([3]; listed as Hpg): dose dependent effects
O=C1C=CC(=C(c2ccccc2)c2ccc(O)cc2)C=C1 [NSC55861]	–	–	–	–	dose dependently reduced GR activity	–
O=C(/C=C/c1ccccc1)/C=C/c1ccccc1O [NSC636788]	–	–	–	–	dose dependently reduced GR activity	–
COC(=O)[C@H]1[C@H]2C[C@@H]3c4[nH]c5cc(OC)ccc5c4CCN3C[C@H]2C[C@@H](OC(=O)c2cc(OC)c(OC)c(OC)c2)[C@@H]1OC [Reserpine]	↑ (0.8 to 2 s.d. greater than the mean (↑))	↑ (0.8 to 2 s.d. greater than the mean (↑))	↑ (0.8 to 2 s.d. greater than the mean (↑))	no	–	–
CS(=O)(=O)c1ccc([C@@H](O)[C@@H](CO)NC(=O)C(Cl)Cl)cc1 [Thiamphenicol]	No effect	↑↑↑^e (more than 2 s.d. greater than the mean (↑↑↑))	No effect	no	–	–
COc1cccc2c1C(=O)c1c(O)c3c(c(O)c1C2=O)C[C@@](O)(C(C)=O)C[C@@H]3O[C@H]1C[C@H](N)[C@H](O)[C@H](C)O1 [daunorubicin]	–	–	–	–	inhibited GR	–
a amanitin	–	–	–	–	–	effect on GR-dependent reporter pENaC-luc compared with GR-independent constitutive reporter pSV40-rl ([3]; A549 cells, with dex): reduced the activity of both reporters to similar extents

Second part, led by results:

ENaC-CFP [1]	FKBP5-OFP [1]	GILZ-YFP [1]	Dose dependent [3]	Compound	GR activity (GR-mediated induction of pENaC-luc reporter) ([3]; A549 cells, with dex)	also measured
No effect	↓ (0.8 to 2 s.d. less than the mean (↓))	↓ (0.8 to 2 s.d. less than the mean (↓))	no	C[N+]1(C)CCCC(OC(=O)C(O)(c2ccccc2)c2ccccc2)C1 (centres unmarked) [Mepenzolate]	–	–
↓ (0.8 to 2 s.d. less than the mean (↓))	↓ (0.8 to 2 s.d. less than the mean (↓))	No effect	yes	O=C1C=CC(=C(c2ccc(O)cc2)c2ccc(O)cc2)C=C1 [Rosolic Acid]	–	expression of endogenous GR target genes (qPCR), overall [2]: selectively modulated endogenous GR target genes; induction of endogenous ENaC (qPCR) [2]: inhibited; induction of endogenous FKBP5 (qPCR) [2]: inhibited; induction of endogenous GILZ (qPCR) [2]: failed to inhibit; Dose dependent ([3]; listed as rosolic acid): dose dependent effects
